The source made the active and inactive calls. How the calls were made is not given here.
System: CCRIS mutagenicity, Ames/micronucleus/aberration tests
Test: CCRIS mutagenicity studies
[1] = Test System: AMES SALMONELLA TYPHIMURIUM, Strain/Indicator: TA98, Metabolic Activation: NONE, Method: PREINCUBATION
[2] = Test System: AMES SALMONELLA TYPHIMURIUM, Strain/Indicator: TA100, Metabolic Activation: NONE, Method: PREINCUBATION
[3] = Test System: AMES SALMONELLA TYPHIMURIUM, Strain/Indicator: TA98, Metabolic Activation: HAMSTER, LIVER, S-9, AROCLOR 1254, Method: STANDARD PLATE
[4] = Test System: AMES SALMONELLA TYPHIMURIUM, Strain/Indicator: TA98, Metabolic Activation: NONE, Method: STANDARD PLATE
[5] = Test System: AMES SALMONELLA TYPHIMURIUM, Strain/Indicator: TA98, Metabolic Activation: RAT, LIVER, S-9, AROCLOR 1254, Method: STANDARD PLATE
[6] = Test System: AMES SALMONELLA TYPHIMURIUM, Strain/Indicator: TA100, Metabolic Activation: HAMSTER, LIVER, S-9, AROCLOR 1254, Method: STANDARD PLATE
[7] = Test System: AMES SALMONELLA TYPHIMURIUM, Strain/Indicator: TA100, Metabolic Activation: NONE, Method: STANDARD PLATE
[8] = Test System: AMES SALMONELLA TYPHIMURIUM, Strain/Indicator: TA100, Metabolic Activation: RAT, LIVER, S-9, AROCLOR 1254, Method: STANDARD PLATE
[9] = Test System: AMES SALMONELLA TYPHIMURIUM, Strain/Indicator: TA1535, Metabolic Activation: HAMSTER, LIVER, S-9, AROCLOR 1254, Method: STANDARD PLATE
[10] = Test System: AMES SALMONELLA TYPHIMURIUM, Strain/Indicator: TA1535, Metabolic Activation: NONE, Method: STANDARD PLATE
[11] = Test System: AMES SALMONELLA TYPHIMURIUM, Strain/Indicator: TA1535, Metabolic Activation: RAT, LIVER, S-9, AROCLOR 1254, Method: STANDARD PLATE
[12] = Test System: AMES SALMONELLA TYPHIMURIUM, Strain/Indicator: TA1537, Metabolic Activation: HAMSTER, LIVER, S-9, AROCLOR 1254, Method: STANDARD PLATE
[13] = Test System: AMES SALMONELLA TYPHIMURIUM, Strain/Indicator: TA1537, Metabolic Activation: NONE, Method: STANDARD PLATE
[14] = Test System: AMES SALMONELLA TYPHIMURIUM, Strain/Indicator: TA1537, Metabolic Activation: RAT, LIVER, S-9, AROCLOR 1254, Method: STANDARD PLATE
[15] = Test System: AMES SALMONELLA TYPHIMURIUM, Strain/Indicator: TA1538, Metabolic Activation: NONE, Method: STANDARD PLATE

## Sc1ccccc1
[1]
  mutagenic call: inactive; negative
Test System: AMES SALMONELLA TYPHIMURIUM, Strain/Indicator: TA98, Metabolic Activation: RAT LIVER S-9, PHENOBARBITAL AND BETA-NAPHTHOFLAVONE, Method: PREINCUBATION
  mutagenic call: inactive; negative
[2]
  mutagenic call: inactive; negative
Test System: AMES SALMONELLA TYPHIMURIUM, Strain/Indicator: TA100, Metabolic Activation: RAT LIVER S-9, PHENOBARBITAL AND BETA-NAPHTHOFLAVONE, Method: PREINCUBATION
  mutagenic call: inactive; negative
Test System: AMES SALMONELLA TYPHIMURIUM, Strain/Indicator: TA1535, Metabolic Activation: NONE, Method: PREINCUBATION
  mutagenic call: inactive; negative
Test System: AMES SALMONELLA TYPHIMURIUM, Strain/Indicator: TA1535, Metabolic Activation: RAT LIVER S-9, PHENOBARBITAL AND BETA-NAPHTHOFLAVONE, Method: PREINCUBATION
  mutagenic call: inactive; negative
Test System: AMES SALMONELLA TYPHIMURIUM, Strain/Indicator: TA1537, Metabolic Activation: NONE, Method: PREINCUBATION
  mutagenic call: inactive; negative
Test System: AMES SALMONELLA TYPHIMURIUM, Strain/Indicator: TA1537, Metabolic Activation: RAT LIVER S-9, PHENOBARBITAL AND BETA-NAPHTHOFLAVONE, Method: PREINCUBATION
  mutagenic call: inactive; negative
Test System: AMES SALMONELLA TYPHIMURIUM, Strain/Indicator: TA1538, Metabolic Activation: NONE, Method: PREINCUBATION
  mutagenic call: inactive; negative
Test System: AMES SALMONELLA TYPHIMURIUM, Strain/Indicator: TA1538, Metabolic Activation: RAT LIVER S-9, PHENOBARBITAL AND BETA-NAPHTHOFLAVONE, Method: PREINCUBATION
  mutagenic call: inactive; negative
Test System: E.COLI, Strain/Indicator: WP2UVRA, Metabolic Activation: NONE, Method: PREINCUBATION
  mutagenic call: active; positive
Test System: E.COLI, Strain/Indicator: WP2UVRA, Metabolic Activation: RAT LIVER S-9, PHENOBARBITAL AND BETA-NAPHTHOFLAVONE, Method: PREINCUBATION
  mutagenic call: inactive; negative

## c1ccc2cnncc2c1
[3]
  mutagenic call: inactive; negative
[1]
  mutagenic call: inactive; negative
[4]
  mutagenic call: inactive; negative
[5]
  mutagenic call: inactive; negative
Test System: AMES SALMONELLA TYPHIMURIUM, Strain/Indicator: TA98, Metabolic Activation: RAT, LIVER, S-9, PCB, Method: PREINCUBATION
  mutagenic call: inactive; negative
[6]
  mutagenic call: inactive; negative
[2]
  mutagenic call: inactive; negative
[7]
  mutagenic call: inactive; negative
[8]
  mutagenic call: inactive; negative
Test System: AMES SALMONELLA TYPHIMURIUM, Strain/Indicator: TA100, Metabolic Activation: RAT, LIVER, S-9, PCB, Method: PREINCUBATION
  mutagenic call: inactive; negative
[9]
  mutagenic call: inactive; negative
[10]
  mutagenic call: inactive; negative
[11]
  mutagenic call: inactive; negative
[12]
  mutagenic call: inactive; negative
[13]
  mutagenic call: inactive; negative
[14]
  mutagenic call: inactive; negative
Test System: AMES SALMONELLA TYPHIMURIUM, Strain/Indicator: TA1538, Metabolic Activation: HAMSTER, LIVER, S-9, AROCLOR 1254, Method: STANDARD PLATE
  mutagenic call: inactive; negative
[15]
  mutagenic call: inactive; negative
Test System: AMES SALMONELLA TYPHIMURIUM, Strain/Indicator: TA1538, Metabolic Activation: RAT, LIVER, S-9, AROCLOR 1254, Method: STANDARD PLATE
  mutagenic call: inactive; negative
Test System: MOUSE LYMPHOMA, Strain/Indicator: L5178Y (TK+/TK-), Metabolic Activation: NONE, Method: SUSPENSION/PLATE
  mutagenic call: active; positive. reevaluation of results: equivocal
Test System: MOUSE LYMPHOMA, Strain/Indicator: L5178Y (TK+/TK-), Metabolic Activation: RAT, LIVER, S-9, AROCLOR 1254, Method: SUSPENSION/PLATE
  mutagenic call: active; positive. reevaluation of results: positive

## O=C(ON(OCc1ccccc1)C(=O)c1ccccc1)c1cccc([N+](=O)[O-])c1
[7]
  mutagenic call: active; positive
Test System: AMES SALMONELLA TYPHIMURIUM, Strain/Indicator: TA100, Metabolic Activation: RAT, S-9, AROCLOR, Method: STANDARD PLATE
  mutagenic call: active; positive

## CCOCC(O)COc1ccc(NC(=O)CC[S+](C)C)cc1 (stereo not drawn)
[4]
  mutagenic call: inactive; negative
Test System: AMES SALMONELLA TYPHIMURIUM, Strain/Indicator: TA98, Metabolic Activation: RAT, LIVER, S-9, Method: STANDARD PLATE
  mutagenic call: inactive; negative
[7]
  mutagenic call: inactive; negative
Test System: AMES SALMONELLA TYPHIMURIUM, Strain/Indicator: TA100, Metabolic Activation: RAT, LIVER, S-9, Method: STANDARD PLATE
  mutagenic call: inactive; negative
[10]
  mutagenic call: inactive; negative
Test System: AMES SALMONELLA TYPHIMURIUM, Strain/Indicator: TA1535, Metabolic Activation: RAT, LIVER, S-9, Method: STANDARD PLATE
  mutagenic call: inactive; negative
[13]
  mutagenic call: inactive; negative
Test System: AMES SALMONELLA TYPHIMURIUM, Strain/Indicator: TA1537, Metabolic Activation: RAT, LIVER, S-9, Method: STANDARD PLATE
  mutagenic call: inactive; negative
[15]
  mutagenic call: inactive; negative
Test System: AMES SALMONELLA TYPHIMURIUM, Strain/Indicator: TA1538, Metabolic Activation: RAT, LIVER, S-9, Method: STANDARD PLATE
  mutagenic call: inactive; negative
Test System: E. COLI, Strain/Indicator: WP2, Metabolic Activation: NONE, Method: STANDARD PLATE
  mutagenic call: inactive; negative
Test System: E. COLI, Strain/Indicator: WP2, Metabolic Activation: RAT, LIVER, S-9, Method: STANDARD PLATE
  mutagenic call: inactive; negative
Test System: E. COLI, Strain/Indicator: WP2 UVRA, Metabolic Activation: NONE, Method: STANDARD PLATE
  mutagenic call: inactive; negative
Test System: E. COLI, Strain/Indicator: WP2 UVRA, Metabolic Activation: RAT, LIVER, S-9, Method: STANDARD PLATE
  mutagenic call: inactive; negative

## CN(CCC#N)c1ccc(N=Nc2ccccc2)cc1
Test System: AMES SALMONELLA TYPHIMURIUM, Strain/Indicator: TA98, Metabolic Activation: RAT, LIVER, S-9, AROCLOR, Method: PREINCUBATION
  mutagenic call: active; positive

## O=C1C=C(CCl)CO1
[7]
  mutagenic call: active; positive

## CCCCC(CC)COP(=O)(OCC(CC)CCCC)OCC(CC)CCCC (stereo not drawn)
End Point: IN VITRO CHROMOSOMAL ABERRATIONS, Test System: CHO CELLS, Metabolic Activation: NONE
  mutagenic call: inactive; negative
End Point: IN VITRO CHROMOSOMAL ABERRATIONS, Test System: CHO CELLS, Metabolic Activation: RAT, LIVER, S-9, AROCLOR 1254
  mutagenic call: inactive; negative
[3]
  mutagenic call: inactive; negative
[4]
  mutagenic call: inactive; negative
[5]
  mutagenic call: inactive; negative
[6]
  mutagenic call: inactive; negative
[7]
  mutagenic call: inactive; negative
[8]
  mutagenic call: inactive; negative
[9]
  mutagenic call: inactive; negative
[10]
  mutagenic call: inactive; negative
[11]
  mutagenic call: inactive; negative
[12]
  mutagenic call: inactive; negative
[13]
  mutagenic call: inactive; negative
[14]
  mutagenic call: inactive; negative

## O=C(N=c1sn(C(=O)c2cccc(Cl)c2)c2ccc([N+](=O)[O-])cc12)c1cccc(Cl)c1
Test System: AMES SALMONELLA TYPHIMURIUM, Strain/Indicator: TA100, Metabolic Activation: S-9, Method: STANDARD PLATE
  mutagenic call: active; positive

## Nc1cc([N+](=O)[O-])c(-c2ccccc2)c([N+](=O)[O-])c1
[1]
  mutagenic call: inactive; negative
Test System: AMES SALMONELLA TYPHIMURIUM, Strain/Indicator: TA98, Metabolic Activation: RAT, LIVER, S-9, KANECHLOR 500, Method: PREINCUBATION
  mutagenic call: active; positive

Reference: PubChem BioAssay AID1259407 (Chemical Carcinogenesis Research Information System (CCRIS), 2018)
